Experiment [1] addresses T1, c-Met (cytoplasmic domain) (Homo sapiens, UniProt P08581).
T1 construct: 10 ng/mL c-Met (cytoplasmic domain, Invitrogen Corporation #PV3143); purchased Invitrogen Corporation PV3143
Kind of experiment: c-Met Kinase Assay (same methods as for ALK, with modifications). It is filed as biochemical. Conditions: 1 μM ATP (Km level), 10 ng/mL c-Met; read-out: cMet Activity (c-Met kinase inhibition, IC50 class). A digest of the protocol: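 Steps: coat wells with PLC-γ (10 μg/mL, Tris-buffered saline); add 10 ng/mL c-Met cytoplasmic domain to initiate; incubate 15 min, 37° C; detect phosphoproduct via Eu-N1 PT66 antibody.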

Experiment [2] addresses T2, baculovirus-expressed ALK (Homo sapiens, UniProt Q9UM73).
T2 construct: host or cells: baculovirus expression system
Kind of experiment: ALK Kinase Assay (ELISA-type, time-resolved fluorescence). It is filed as biochemical. The following applies: 1 μM ATP (Km level), 30 ng/ml ALK, 37° C., 15 minutes; read-out: ALK Activity (ALK kinase inhibition, IC50 class). The procedure, abridged: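 Wells were coated with phospholipase C-γ at 10 μg/mL in Tris-buffered saline. Adding 30 ng/ml enzyme started the reaction, which ran at 37° C for 15 minutes before Eu-N1 PT66 antibody detection. Percent inhibition versus log10 concentration gave IC50 by variable-slope fit.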

This passage reports IC50 results from patent US8148391B2 (Cephalon, Inc., priority 2006, dated 2012).

Some results are limits rather than exact numbers.

T2 sequence (Q9UM73 19-1620): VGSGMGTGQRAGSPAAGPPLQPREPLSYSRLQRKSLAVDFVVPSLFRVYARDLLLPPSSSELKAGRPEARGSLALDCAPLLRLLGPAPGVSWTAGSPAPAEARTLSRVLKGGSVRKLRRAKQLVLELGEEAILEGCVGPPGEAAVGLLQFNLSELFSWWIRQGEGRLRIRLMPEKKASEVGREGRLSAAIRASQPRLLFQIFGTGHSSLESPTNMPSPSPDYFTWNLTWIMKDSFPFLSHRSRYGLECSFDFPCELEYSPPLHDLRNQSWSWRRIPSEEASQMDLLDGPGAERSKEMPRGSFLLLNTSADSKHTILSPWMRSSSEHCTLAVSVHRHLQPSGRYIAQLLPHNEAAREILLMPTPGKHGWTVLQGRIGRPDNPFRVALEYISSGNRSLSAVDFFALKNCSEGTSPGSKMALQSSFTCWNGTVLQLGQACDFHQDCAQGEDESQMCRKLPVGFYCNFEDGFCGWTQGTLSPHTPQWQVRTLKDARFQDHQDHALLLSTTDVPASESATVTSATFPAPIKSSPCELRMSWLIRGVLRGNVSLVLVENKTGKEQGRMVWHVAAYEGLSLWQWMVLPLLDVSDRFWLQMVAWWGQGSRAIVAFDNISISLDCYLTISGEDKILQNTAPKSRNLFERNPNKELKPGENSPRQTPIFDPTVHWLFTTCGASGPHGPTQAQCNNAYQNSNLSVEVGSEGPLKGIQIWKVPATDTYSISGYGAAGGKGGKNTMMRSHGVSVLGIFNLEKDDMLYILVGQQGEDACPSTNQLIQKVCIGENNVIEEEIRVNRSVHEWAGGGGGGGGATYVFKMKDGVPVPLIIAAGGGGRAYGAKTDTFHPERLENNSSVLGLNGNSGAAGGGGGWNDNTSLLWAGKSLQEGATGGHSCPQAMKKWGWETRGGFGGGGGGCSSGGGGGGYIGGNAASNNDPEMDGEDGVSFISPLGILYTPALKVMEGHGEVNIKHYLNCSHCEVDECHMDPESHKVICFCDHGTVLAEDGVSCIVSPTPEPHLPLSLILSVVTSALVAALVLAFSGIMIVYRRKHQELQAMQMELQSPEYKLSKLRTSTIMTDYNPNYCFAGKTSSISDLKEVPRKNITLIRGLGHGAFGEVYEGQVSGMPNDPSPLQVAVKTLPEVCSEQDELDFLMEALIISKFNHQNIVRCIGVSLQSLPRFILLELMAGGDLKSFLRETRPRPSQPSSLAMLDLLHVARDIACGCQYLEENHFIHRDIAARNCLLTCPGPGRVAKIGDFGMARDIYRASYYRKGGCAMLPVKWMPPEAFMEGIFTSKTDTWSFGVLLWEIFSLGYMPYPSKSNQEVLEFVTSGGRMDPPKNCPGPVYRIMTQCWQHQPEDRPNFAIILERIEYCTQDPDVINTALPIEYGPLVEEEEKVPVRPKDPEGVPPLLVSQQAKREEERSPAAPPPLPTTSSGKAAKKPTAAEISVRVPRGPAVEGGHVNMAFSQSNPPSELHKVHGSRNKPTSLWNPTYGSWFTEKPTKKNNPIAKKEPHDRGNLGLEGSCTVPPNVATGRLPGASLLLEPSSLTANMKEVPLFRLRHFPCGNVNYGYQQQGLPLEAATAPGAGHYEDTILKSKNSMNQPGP
T1 sequence (P08581 956-1390 limits assumed): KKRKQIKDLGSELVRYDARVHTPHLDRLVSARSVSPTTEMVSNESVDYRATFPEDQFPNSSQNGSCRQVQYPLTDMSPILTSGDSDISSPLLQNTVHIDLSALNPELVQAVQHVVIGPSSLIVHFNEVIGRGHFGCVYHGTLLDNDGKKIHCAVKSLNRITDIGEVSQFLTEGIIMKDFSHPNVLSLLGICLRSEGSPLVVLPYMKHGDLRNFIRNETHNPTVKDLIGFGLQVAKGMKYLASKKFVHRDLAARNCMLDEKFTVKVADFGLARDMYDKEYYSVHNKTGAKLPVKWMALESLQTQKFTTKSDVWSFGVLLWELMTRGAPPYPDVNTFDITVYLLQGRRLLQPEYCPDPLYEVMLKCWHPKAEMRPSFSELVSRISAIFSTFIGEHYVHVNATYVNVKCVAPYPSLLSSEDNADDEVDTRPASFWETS

The term IC50 denotes the concentration that inhibits the measured activity by half. Take `COc1cc2c(cc1Nc1ncc(Cl)c(Nc3ccccc3-n3cccn3)n1)CCN(CC(=O)N(C)C)CC2` [Example 1320, 2-{7-[5-Chloro-4-(2-pyrazol-1-yl-phenylamino)-pyrimidin-2-ylamino]-8-methoxy-1,2,4,5-tetrahydro-benzo[d]azepin-3-yl}-N,N-dimethyl-acetamide]: the IC50 in experiment [1] is > 10 µM; in experiment [2] it was < 0.1 µM.

`COCCN1CCc2cc(Nc3ncc(Cl)c(Nc4ccccc4-n4cccn4)n3)c(OC)cc2CC1` [Example 1321, 5-Chloro-N*2*-[8-methoxy-3-(2-methoxy-ethyl)-2,3,4,5-tetrahydro-1H-benzo[d]azepin-7-yl]-N*4*-(2-pyrazol-1-yl-phenyl)-pyrimidine-2,4-diamine]: the figures for the IC50 in experiment [1] and in experiment [2] were > 10 µM and < 0.1 µM, respectively.

As to `COCCN1CCc2cc(Nc3ncc(Cl)c(N[C@@H]4[C@H](C(N)=O)[C@H]5C=C[C@@H]4C5)n3)c(OC)cc2CC1` [Example 1322, (1R,2R,3S,4S)-3-{5-Chloro-2-[8-methoxy-3-(2-methoxy-ethyl)-2,3,4,5-tetrahydro-1H-benzo[d]azepin-7-ylamino]-pyrimidin-4-ylamino}-bicyclo[2.2.1]hept-5-ene-2-carboxylic acid amide], the concentration for half-maximal inhibition (IC50) in experiment [1] was > 10 µM; in experiment [2], 1 to 10 µM.

In the case of `CN1C(=O)CCC(C)(C)c2cc(Nc3ncc(Cl)c(Nc4ccccc4-n4cccn4)n3)ccc21` [Example 1323, 7-[5-Chloro-4-(2-pyrazol-1-yl-phenylamino)-pyrimidin-2-ylamino]-1,5,5-trimethyl-1,3,4,5-tetrahydro-benzo[b]azepin-2-one], the concentration for half-maximal inhibition (IC50) was 0.1 to 1 µM in experiment [1] and < 0.1 µM in experiment [2].

With `CN1C(=O)CCC(C)(C)c2cc(Nc3ncc(Cl)c(Nc4ccccc4S(=O)(=O)N(C)C)n3)ccc21` [Example 1325, 2-[5-Chloro-2-(1,5,5-trimethyl-2-oxo-2,3,4,5-tetrahydro-1H-benzo[b]azepin-7-ylamino)-pyrimidin-4-ylamino]-N,N-dimethyl-benzenesulfonamide], the half-inhibitory concentration (IC50) in experiment [1] is 0.1 to 1 µM; in experiment [2], < 0.1 µM.

With `CC(C)S(=O)(=O)c1ccccc1Nc1nc(Nc2ccc3c(c2)C(C)(C)CCC(=O)N3C)ncc1Cl` [Example 1329, 7-{5-Chloro-4-[2-(propane-2-sulfonyl)-phenylamino]-pyrimidin-2-ylamino}-1,5,5-trimethyl-1,3,4,5-tetrahydro-benzo[b]azepin-2-one], the IC50 in experiment [1] and in experiment [2] was < 0.1 µM throughout.

Consider `CCN1C(=O)C(NC(=O)C(F)(F)F)CCc2c1ccc(Nc1ncc(Cl)c(N[C@H]3[C@@H](C(N)=O)[C@@H]4C=C[C@H]3C4)n1)c2OC` (stereo partly drawn) [Example 1330, (1S,2S,3R,4R)-3-{5-Chloro-2-[1-ethyl-6-methoxy-2-oxo-3-(2,2,2-trifluoro-acetylamino)-2,3,4,5-tetrahydro-1H-benzo[b]azepin-7-ylamino]-pyrimidin-4-ylamino}-bicyclo[2.2.1]hept-5-ene-2-carboxylic acid amide], for which the values for the concentration for half-maximal inhibition (IC50) in experiment [1] and in experiment [2] were > 10 µM and < 0.1 µM, respectively.

`CCN1C(=O)C(NC(=O)C(F)(F)F)CCc2c1ccc(Nc1ncc(Cl)c(Nc3ccccc3S(=O)(=O)C(C)C)n1)c2OC` (centres unmarked) [Example 1333, N-(7-{5-Chloro-4-[2-(propane-2-sulfonyl)-phenylamino]-pyrimidin-2-ylamino}-1-ethyl-6-methoxy-2-oxo-2,3,4,5-tetrahydro-1H-benzo[b]azepin-3-yl)-2,2,2-trifluoro-acetamide]: the half-maximal inhibitory concentration (IC50) in experiment [1] is > 10 µM; in experiment [2], < 0.1 µM.

In the case of `CCN1C(=O)C(NC(=O)C(F)(F)F)CCc2c1ccc(Nc1ncc(Cl)c(Nc3ccccc3S(=O)(=O)N(C)C)n1)c2OC` (centres unmarked) [Example 1334, N-{7-[5-Chloro-4-(2-dimethylsulfamoyl-phenylamino)-pyrimidin-2-ylamino]-1-ethyl-6-methoxy-2-oxo-2,3,4,5-tetrahydro-1H-benzo[b]azepin-3-yl}-2,2,2-trifluoro-acetamide], the concentration for half-maximal inhibition (IC50) was > 10 µM in experiment [1] and < 0.1 µM in experiment [2].

On to `CCN1C(=O)C(NC(=O)C(F)(F)F)CCc2c1ccc(Nc1ncc(Cl)c(N[C@@H]3CCCC[C@H]3NS(C)(=O)=O)n1)c2OC` (stereo partly drawn) [Example 1335, N-{7-[5-Chloro-4-((1R,2R)-2-methanesulfonylamino-cyclohexylamino)-pyrimidin-2-ylamino]-1-ethyl-6-methoxy-2-oxo-2,3,4,5-tetrahydro-1H-benzo[b]azepin-3-yl}-2,2,2-trifluoro-acetamide], for which the IC50 was > 10 µM in experiment [1] and < 0.1 µM in experiment [2].

With `CCN1C(=O)C(N)CCc2c1ccc(Nc1ncc(Cl)c(Nc3ccccc3S(=O)(=O)N(C)C)n1)c2OC` (centres unmarked) [Example 1336, 2-[2-(3-Amino-1-ethyl-6-methoxy-2-oxo-2,3,4,5-tetrahydro-1H-benzo[b]azepin-7-ylamino)-5-chloro-pyrimidin-4-ylamino]-N,N-dimethyl-benzenesulfonamide], the 50% inhibitory concentration (IC50) in experiment [1] is > 10 µM; in experiment [2] it was < 0.1 µM.

Turning to `CCN1C(=O)C(N)CCc2c1ccc(Nc1ncc(Cl)c(Nc3ccccc3S(=O)(=O)C(C)C)n1)c2OC` (centres unmarked) [Example 1337, 3-Amino-7-{5-chloro-4-[2-(propane-2-sulfonyl)-phenylamino]-pyrimidin-2-ylamino}-1-ethyl-6-methoxy-1,3,4,5-tetrahydro-benzo[b]azepin-2-one], the results for the IC50 in experiment [1] and in experiment [2] were > 10 µM and < 0.1 µM, respectively.

Turning to `CCN1C(=O)C(N)CCc2c1ccc(Nc1ncc(Cl)c(N[C@@H]3CCCC[C@H]3NS(C)(=O)=O)n1)c2OC` (stereo partly drawn) [Example 1338, N-{(1R,2R)-2-[2-(3-Amino-1-ethyl-6-methoxy-2-oxo-2,3,4,5-tetrahydro-1H-benzo[b]azepin-7-ylamino)-5-chloro-pyrimidin-4-ylamino]-cyclohexyl}-methanesulfonamide], the half-inhibitory concentration (IC50) in experiment [1] is > 10 µM; in experiment [2], 0.1 to 1 µM.

Turning to `CCN1C(=O)CCCc2c1ccc(Nc1ncc(Cl)c(Nc3ccc(N(C)C)cc3OC)n1)c2OC` [Example 1339, 7-[5-Chloro-4-(4-dimethylamino-2-methoxy-phenylamino)-pyrimidin-2-ylamino]-1-ethyl-6-methoxy-1,3,4,5-tetrahydro-benzo[b]azepin-2-one], the IC50 in experiment [1] was > 10 µM; in experiment [2], 0.1 to 1 µM.

For `CCN1C(=O)CCCc2cc(Nc3ncc(Cl)c(Nc4ccc(N(C)C)cc4OC)n3)c(OC)cc21` [Example 1340, 7-[5-Chloro-4-(4-dimethylamino-2-methoxy-phenylamino)-pyrimidin-2-ylamino]-1-ethyl-8-methoxy-1,3,4,5-tetrahydro-benzo[b]azepin-2-one], the IC50 in experiment [1] is > 10 µM; in experiment [2] it was < 0.1 µM.

With `COc1cc(N(C)C)ccc1Nc1nc(Nc2ccc3c(c2)C(C)(C)CCC(=O)N3C)ncc1Cl` [Example 1342, 7-[5-Chloro-4-(4-dimethylamino-2-methoxy-phenylamino)-pyrimidin-2-ylamino]-1,5,5-trimethyl-1,3,4,5-tetrahydro-benzo[b]azepin-2-one], the values for the half-inhibitory concentration (IC50) in experiment [1] and in experiment [2] were 1 to 10 µM and < 0.1 µM, respectively.

`CCN1C(=O)C(N)CCc2c1ccc(Nc1ncc(Cl)c(Nc3ccc(N(C)C)cc3OC)n1)c2OC` (centres unmarked) [Example 1343, 3-Amino-7-[5-chloro-4-(4-dimethylamino-2-methoxy-phenylamino)-pyrimidin-2-ylamino]-1-ethyl-6-methoxy-1,3,4,5-tetrahydro-benzo[b]azepin-2-one]: the concentration for half-maximal inhibition (IC50) in experiment [1] is > 10 µM; in experiment [2] it was < 0.1 µM.

For `CCN1C(=O)C(N(C)C)CCc2c1ccc(Nc1ncc(Cl)c(Nc3ccccc3S(=O)(=O)N(C)C)n1)c2OC` (centres unmarked) [Example 1348, 2-[5-Chloro-2-(3-dimethylamino-1-ethyl-6-methoxy-2-oxo-2,3,4,5-tetrahydro-1H-benzo[b]azepin-7-ylamino)-pyrimidin-4-ylamino]-N,N-dimethyl-benzenesulfonamide], the half-maximal inhibitory concentration (IC50) in experiment [1] is > 10 µM; in experiment [2], < 0.1 µM.

As for `CCN1C(=O)C(N(C)C)CCc2c1ccc(Nc1ncc(Cl)c(Nc3ccccc3-n3cccn3)n1)c2OC` (centres unmarked) [Example 1349, 7-[5-Chloro-4-(2-pyrazol-1-yl-phenylamino)-pyrimidin-2-ylamino]-3-dimethylamino-1-ethyl-6-methoxy-1,3,4,5-tetrahydro-benzo[b]azepin-2-one], the IC50 in experiment [1] was > 10 µM; in experiment [2], < 0.1 µM.

In the case of `CCN1C(=O)C(NC(=O)COC)CCc2c1ccc(Nc1ncc(Cl)c(Nc3ccccc3S(=O)(=O)N(C)C)n1)c2OC` (centres unmarked) [Example 1352, N-{7-[5-Chloro-4-(2-dimethylsulfamoyl-phenylamino)-pyrimidin-2-ylamino]-1-ethyl-6-methoxy-2-oxo-2,3,4,5-tetrahydro-1H-benzo[b]azepin-3-yl}-2-methoxy-acetamide], the values for the IC50 in experiment [1] and in experiment [2] were > 10 µM and < 0.1 µM, respectively.

On to `CCN1C(=O)C(NC(=O)CN(C)C)CCc2c1ccc(Nc1ncc(Cl)c(Nc3ccccc3S(=O)(=O)N(C)C)n1)c2OC` (centres unmarked) [Example 1356, N-{7-[5-Chloro-4-(2-dimethylsulfamoyl-phenylamino)-pyrimidin-2-ylamino]-1-ethyl-6-methoxy-2-oxo-2,3,4,5-tetrahydro-1H-benzo[b]azepin-3-yl}-2-dimethylamino-acetamide], for which the IC50 is > 10 µM in experiment [1] and < 0.1 µM in experiment [2].

Turning to `CCN1C(=O)C(NC(=O)C2CC2)CCc2c1ccc(Nc1ncc(Cl)c(Nc3ccccc3S(=O)(=O)N(C)C)n1)c2OC` (centres unmarked) [Example 1359, Cyclopropanecarboxylic acid {7-[5-chloro-4-(2-dimethylsulfamoyl-phenylamino)-pyrimidin-2-ylamino]-1-ethyl-6-methoxy-2-oxo-2,3,4,5-tetrahydro-1H-benzo[b]azepin-3-yl}-amide], the half-maximal inhibitory concentration (IC50) is > 10 µM in experiment [1] and < 0.1 µM in experiment [2].
